How the values were obtained:
[1] = biological target: HDAC9 (Homo sapiens, UniProt Q9UKV0); assay: HDAC isoform inhibition, HDAC9; assay type: biochemical
[2] = tested on: L3.6pl; assay: In vitro growth inhibition (GI), MTS cell proliferation assay (Table 5), L3.6pl; assay type: cell-based; details: Homo sapiens, 72 hours post-treatment
[3] = tested on: BxPC3; assay: In vitro growth inhibition (GI), MTS cell proliferation assay (Table 5), BxPC3; assay type: cell-based; details: Homo sapiens, BXPC-3, 72 hours post-treatment
[4] = biological target: HDAC4 (Homo sapiens, UniProt P56524); assay: HDAC isoform inhibition, HDAC4; assay type: biochemical
Sequence of HDAC4 (P56524 whole entry, canonical isoform): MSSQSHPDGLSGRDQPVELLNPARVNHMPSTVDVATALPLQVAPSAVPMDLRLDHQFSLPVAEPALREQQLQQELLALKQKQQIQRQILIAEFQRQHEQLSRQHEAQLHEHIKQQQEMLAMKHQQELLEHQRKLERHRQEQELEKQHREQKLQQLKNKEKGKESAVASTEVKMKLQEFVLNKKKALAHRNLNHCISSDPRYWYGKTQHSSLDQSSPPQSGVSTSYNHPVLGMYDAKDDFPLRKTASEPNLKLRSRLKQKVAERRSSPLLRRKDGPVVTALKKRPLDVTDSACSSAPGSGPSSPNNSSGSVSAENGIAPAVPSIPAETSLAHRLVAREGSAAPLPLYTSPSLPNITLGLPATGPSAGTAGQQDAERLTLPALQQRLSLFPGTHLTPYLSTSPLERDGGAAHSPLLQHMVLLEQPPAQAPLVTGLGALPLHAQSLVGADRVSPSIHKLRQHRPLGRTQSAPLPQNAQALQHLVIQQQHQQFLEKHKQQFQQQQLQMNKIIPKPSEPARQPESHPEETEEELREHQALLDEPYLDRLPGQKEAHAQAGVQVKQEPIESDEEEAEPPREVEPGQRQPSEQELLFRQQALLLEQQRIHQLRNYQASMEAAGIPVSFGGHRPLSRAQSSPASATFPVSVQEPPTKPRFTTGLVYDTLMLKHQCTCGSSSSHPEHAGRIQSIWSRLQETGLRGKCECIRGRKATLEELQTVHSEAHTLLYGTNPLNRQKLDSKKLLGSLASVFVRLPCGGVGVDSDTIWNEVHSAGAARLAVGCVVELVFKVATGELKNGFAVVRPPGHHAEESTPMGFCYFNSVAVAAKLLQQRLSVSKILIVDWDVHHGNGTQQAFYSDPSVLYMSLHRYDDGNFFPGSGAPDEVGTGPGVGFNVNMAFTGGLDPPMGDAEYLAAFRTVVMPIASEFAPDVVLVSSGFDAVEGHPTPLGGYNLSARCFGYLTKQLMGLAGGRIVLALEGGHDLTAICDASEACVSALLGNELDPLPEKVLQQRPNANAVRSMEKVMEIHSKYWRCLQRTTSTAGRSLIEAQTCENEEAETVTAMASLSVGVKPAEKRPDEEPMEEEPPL

[5] = biological target: HDAC5 (Homo sapiens, UniProt Q9UQL6); assay: HDAC isoform inhibition, HDAC5; assay type: biochemical
Sequence of HDAC5 (Q9UQL6 whole entry, canonical isoform): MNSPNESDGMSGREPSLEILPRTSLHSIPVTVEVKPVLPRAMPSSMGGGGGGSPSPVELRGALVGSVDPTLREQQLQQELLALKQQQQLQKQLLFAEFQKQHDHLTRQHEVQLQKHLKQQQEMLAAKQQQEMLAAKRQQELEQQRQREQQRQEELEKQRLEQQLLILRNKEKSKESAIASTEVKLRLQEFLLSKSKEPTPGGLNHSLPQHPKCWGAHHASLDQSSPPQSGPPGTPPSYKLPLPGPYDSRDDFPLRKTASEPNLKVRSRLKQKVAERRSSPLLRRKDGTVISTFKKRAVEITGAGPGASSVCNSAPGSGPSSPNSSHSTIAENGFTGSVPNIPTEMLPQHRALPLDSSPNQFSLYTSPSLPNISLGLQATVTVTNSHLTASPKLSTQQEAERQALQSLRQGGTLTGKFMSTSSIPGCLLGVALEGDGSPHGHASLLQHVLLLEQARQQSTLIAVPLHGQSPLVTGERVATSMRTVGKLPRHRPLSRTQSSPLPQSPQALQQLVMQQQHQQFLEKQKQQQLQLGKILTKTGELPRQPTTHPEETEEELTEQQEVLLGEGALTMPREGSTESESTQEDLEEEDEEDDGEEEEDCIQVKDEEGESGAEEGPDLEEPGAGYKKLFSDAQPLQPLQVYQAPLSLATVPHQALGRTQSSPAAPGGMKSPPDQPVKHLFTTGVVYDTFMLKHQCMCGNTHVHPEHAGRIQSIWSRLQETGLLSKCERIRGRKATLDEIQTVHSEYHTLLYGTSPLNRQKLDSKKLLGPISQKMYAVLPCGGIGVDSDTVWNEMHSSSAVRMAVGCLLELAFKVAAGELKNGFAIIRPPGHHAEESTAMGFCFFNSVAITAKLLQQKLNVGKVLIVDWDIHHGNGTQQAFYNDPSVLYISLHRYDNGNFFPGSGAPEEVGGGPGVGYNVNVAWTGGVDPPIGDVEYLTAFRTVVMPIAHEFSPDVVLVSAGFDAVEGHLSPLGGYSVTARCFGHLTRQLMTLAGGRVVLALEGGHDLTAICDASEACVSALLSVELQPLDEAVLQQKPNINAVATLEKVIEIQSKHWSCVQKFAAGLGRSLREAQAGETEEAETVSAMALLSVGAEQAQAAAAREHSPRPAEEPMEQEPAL

[6] = biological target: HDAC2 (Homo sapiens, UniProt Q92769); assay: In vitro HDAC inhibition assay, HDAC2; assay type: biochemical
Sequence of HDAC2 (Q92769 whole entry): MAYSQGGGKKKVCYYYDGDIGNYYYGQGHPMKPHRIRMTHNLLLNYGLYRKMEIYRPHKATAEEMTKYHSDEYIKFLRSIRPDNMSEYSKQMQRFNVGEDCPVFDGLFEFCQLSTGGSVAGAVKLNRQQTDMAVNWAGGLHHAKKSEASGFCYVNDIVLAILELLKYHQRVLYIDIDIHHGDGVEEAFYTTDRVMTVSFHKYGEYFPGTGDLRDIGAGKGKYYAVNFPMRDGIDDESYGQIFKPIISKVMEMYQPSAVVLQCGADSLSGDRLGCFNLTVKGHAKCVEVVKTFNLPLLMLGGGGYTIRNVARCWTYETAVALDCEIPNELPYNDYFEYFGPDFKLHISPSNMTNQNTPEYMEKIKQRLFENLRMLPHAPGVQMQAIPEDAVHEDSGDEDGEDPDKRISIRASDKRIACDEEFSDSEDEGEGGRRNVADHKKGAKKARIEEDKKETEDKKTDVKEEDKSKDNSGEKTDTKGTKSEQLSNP

[7] = biological target: T1, HDAC10 (Homo sapiens, UniProt Q969S8); assay: In vitro HDAC inhibition assay, HDAC10; assay type: biochemical
T1 sequence (Q969S8 1-669): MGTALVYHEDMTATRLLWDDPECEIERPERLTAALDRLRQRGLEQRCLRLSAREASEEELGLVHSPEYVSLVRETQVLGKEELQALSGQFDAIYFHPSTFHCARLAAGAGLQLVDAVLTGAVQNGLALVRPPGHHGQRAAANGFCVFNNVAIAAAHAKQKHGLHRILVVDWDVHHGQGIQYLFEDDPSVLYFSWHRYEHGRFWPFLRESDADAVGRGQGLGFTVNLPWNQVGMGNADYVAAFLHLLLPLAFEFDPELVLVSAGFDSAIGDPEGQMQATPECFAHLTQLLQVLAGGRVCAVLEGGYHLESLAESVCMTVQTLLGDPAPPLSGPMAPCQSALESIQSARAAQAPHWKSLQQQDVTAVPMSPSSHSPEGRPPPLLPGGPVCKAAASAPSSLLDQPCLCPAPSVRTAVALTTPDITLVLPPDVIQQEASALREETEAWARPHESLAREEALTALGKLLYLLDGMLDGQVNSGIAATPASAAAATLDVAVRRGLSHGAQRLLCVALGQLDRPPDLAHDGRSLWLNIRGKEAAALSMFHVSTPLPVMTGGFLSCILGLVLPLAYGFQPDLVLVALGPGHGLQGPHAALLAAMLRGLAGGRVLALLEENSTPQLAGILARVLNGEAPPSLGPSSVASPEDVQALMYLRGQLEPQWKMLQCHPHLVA

[8] = biological target: T2, HDAC7 (Homo sapiens, UniProt Q8WUI4); assay: HDAC isoform inhibition, HDAC7; assay type: biochemical
T2 sequence (Q8WUI4 1-952): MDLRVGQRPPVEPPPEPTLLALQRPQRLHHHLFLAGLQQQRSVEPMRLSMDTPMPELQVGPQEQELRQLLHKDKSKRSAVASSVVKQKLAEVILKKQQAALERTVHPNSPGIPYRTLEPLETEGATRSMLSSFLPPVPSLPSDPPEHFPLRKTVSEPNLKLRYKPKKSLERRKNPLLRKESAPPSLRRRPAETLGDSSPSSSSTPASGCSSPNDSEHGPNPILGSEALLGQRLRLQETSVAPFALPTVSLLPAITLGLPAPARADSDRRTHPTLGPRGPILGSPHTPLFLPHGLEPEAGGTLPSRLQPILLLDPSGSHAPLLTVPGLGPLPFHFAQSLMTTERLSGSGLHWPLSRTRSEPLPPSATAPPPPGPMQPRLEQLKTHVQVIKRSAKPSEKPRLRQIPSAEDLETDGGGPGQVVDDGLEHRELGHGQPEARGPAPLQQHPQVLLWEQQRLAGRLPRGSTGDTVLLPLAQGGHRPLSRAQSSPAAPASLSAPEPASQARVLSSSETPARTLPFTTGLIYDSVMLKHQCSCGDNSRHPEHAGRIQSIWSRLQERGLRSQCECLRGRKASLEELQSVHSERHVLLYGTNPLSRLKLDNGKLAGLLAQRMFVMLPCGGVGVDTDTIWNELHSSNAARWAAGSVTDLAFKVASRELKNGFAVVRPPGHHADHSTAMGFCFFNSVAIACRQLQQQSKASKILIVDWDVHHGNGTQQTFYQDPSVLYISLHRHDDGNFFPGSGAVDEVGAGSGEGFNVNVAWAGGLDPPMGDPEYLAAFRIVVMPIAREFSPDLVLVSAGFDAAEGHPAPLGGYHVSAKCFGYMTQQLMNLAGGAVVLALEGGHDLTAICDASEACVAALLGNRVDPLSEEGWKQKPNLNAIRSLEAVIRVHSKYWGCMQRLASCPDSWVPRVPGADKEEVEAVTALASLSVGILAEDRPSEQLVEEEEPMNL

[9] = tested on: PANC1 cells; assay: Scratch-wound cell migration assay; assay type: cell-based; parameters: key to Inhibition of cell migration, 24 h / Inhibition of cell migration, 48 h: Level of inhibition (high to low): +++, ++ or +; Level of inhibition (high to low): +++, ++ or +; Level of inhibition (high to low): +++, ++ or +; no inhibition: −
Procedure: FIG. 2 contains photographs of PANC1 cells treated with present compounds 9 and 6 taken 24 and 48 hours (post wounding) after a scratch was made through a confluent layer of cells; and
PANC1 Cell migration and effect on T and NK Cells. The effect of HDAC6 inhibition on cell migration and cellular cytotoxicity was evaluated. […] Thus, these HDAC6-selective inhibitors could function well to block metastasis. However, in contrast to the effect observed on cell migration, none of the compounds tested affected CD8+ T cell or natural killer (NK) cell-mediated cytotoxicity, despite the ability of the compounds to substantially increase the levels of acetyl-tubulin in these cell lines.

Sequence of HDAC9 (Q9UKV0 whole entry, canonical isoform): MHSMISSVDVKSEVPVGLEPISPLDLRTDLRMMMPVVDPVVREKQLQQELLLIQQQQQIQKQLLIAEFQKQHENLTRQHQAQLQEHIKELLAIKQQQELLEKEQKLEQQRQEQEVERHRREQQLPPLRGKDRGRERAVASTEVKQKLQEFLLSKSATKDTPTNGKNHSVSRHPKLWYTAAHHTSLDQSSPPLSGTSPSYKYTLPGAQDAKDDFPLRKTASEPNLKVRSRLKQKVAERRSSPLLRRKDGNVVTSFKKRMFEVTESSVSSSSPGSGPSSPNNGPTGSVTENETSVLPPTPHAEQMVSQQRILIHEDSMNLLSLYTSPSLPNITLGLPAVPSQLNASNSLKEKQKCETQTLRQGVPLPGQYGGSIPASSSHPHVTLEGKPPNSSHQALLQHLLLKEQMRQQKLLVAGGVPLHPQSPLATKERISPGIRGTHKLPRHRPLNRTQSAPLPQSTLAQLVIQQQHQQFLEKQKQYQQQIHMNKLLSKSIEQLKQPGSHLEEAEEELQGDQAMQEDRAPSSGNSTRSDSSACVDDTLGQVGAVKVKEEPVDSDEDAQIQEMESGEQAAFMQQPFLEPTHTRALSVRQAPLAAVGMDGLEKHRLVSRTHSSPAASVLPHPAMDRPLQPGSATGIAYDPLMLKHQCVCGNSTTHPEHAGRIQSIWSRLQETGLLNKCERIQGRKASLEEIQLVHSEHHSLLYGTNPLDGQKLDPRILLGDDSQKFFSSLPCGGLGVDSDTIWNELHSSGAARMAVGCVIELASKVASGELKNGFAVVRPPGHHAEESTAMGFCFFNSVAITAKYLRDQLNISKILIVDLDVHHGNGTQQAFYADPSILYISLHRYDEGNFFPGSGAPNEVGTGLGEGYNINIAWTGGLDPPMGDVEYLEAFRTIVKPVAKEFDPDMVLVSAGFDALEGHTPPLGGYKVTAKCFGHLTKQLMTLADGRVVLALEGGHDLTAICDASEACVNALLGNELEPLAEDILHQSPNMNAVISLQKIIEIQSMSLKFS

## CC(C)(C)OC(=O)Nc1ccc(-c2cc(C(=O)NCCc3cc(C(=O)NO)no3)no2)cc1 [Compound 6, (4-{3-[2-(3-Hydroxycarbamoyl-isoxazol-5-yl)-ethylcarbamoyl]-isoxazol-5-yl}-phenyl)-carbamic acid tert-butyl ester]
[1]
  IC50: 12.8 µM
  Selectivity for HDAC6 (fold) over HDAC9: 2130 fold
[2]
  GI50: > 50 µM
[3]
  GI50: 29 µM
[4]
  IC50: 130 µM
  Selectivity for HDAC6 (fold) over HDAC4: 21600 fold
[5]
  IC50: 34.5 µM
  Selectivity for HDAC6 (fold) over HDAC5: 5750 fold
[6]
  Selectivity for HDAC6 (fold) over HDAC2: 20500 fold
[6]; NI = No inhibition at a concentration of 50 pM (footnote b), read-out: HDAC isoform IC50, HDAC2
  IC50: 123 µM
[7]
  Selectivity for HDAC6 (fold) over HDAC10: >16000 fold
[7]; NI = No inhibition at a concentration of 50 pM (footnote b), read-out: HDAC isoform IC50, HDAC10
  IC50: > 100 µM
[8]
  IC50: 105 µM
  Selectivity for HDAC6 (fold) over HDAC7: 17500 fold
[9]; PANC1, 24 h post wounding
  Inhibition of cell migration, 24 h: +
[9]; PANC1, 48 h post wounding
  Inhibition of cell migration, 48 h: −
[9]; compared to diluent-treated control cells
  Effect on PANC1 cell migration: partial effect

Reference: patent US11739064B2, “HDAC inhibitors and therapeutic methods using the same” (THE BOARD OF TRUSTEES OF THE UNIVERSITY OF ILLINOIS, priority 2015, dated 2023)
